The record followed here is ChEMBL document CHEMBL2074487, “Effects of 12 Ca2+ antagonists on multidrug resistance, MDR1-mediated transport and MDR1 mRNA expression” (Eur J Pharm Sci, 2002).

Each structure is given as a SMILES string.

Sequence of ATP-dependent translocase ABCB1 (P08183 whole entry): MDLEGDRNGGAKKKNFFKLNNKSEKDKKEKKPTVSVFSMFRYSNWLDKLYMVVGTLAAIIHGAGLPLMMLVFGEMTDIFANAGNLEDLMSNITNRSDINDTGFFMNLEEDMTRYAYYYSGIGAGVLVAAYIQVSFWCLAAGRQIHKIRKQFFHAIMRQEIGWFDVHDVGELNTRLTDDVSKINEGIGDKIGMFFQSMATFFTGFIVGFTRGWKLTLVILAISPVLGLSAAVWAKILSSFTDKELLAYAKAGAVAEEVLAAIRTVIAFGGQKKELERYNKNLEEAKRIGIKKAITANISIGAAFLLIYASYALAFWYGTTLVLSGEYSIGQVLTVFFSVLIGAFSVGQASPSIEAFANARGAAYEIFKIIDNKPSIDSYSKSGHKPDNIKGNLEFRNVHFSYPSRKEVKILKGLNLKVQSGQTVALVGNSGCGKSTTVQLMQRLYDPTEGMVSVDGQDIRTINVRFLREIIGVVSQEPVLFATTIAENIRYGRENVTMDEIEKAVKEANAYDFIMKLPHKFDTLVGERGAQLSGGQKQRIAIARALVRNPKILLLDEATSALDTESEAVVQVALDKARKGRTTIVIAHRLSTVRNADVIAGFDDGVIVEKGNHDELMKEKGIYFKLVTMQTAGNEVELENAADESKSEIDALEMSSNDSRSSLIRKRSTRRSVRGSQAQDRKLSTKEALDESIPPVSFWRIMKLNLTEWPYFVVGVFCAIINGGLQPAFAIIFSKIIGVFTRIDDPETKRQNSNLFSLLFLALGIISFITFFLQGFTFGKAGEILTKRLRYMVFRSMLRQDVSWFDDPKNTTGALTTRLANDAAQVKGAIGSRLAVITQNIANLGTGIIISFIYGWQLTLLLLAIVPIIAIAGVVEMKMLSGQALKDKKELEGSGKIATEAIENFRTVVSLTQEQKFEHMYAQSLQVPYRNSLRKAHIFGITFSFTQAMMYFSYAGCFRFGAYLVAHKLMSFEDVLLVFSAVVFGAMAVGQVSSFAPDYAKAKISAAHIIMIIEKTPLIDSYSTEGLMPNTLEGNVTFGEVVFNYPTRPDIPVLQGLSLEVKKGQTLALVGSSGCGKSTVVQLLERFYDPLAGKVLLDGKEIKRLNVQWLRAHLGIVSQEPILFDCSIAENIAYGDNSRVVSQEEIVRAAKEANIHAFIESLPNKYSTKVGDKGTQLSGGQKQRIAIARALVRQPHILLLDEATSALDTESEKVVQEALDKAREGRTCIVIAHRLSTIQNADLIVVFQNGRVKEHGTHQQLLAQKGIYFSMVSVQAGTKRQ

This assay has as its target ATP-dependent translocase ABCB1 (Homo sapiens, UniProt P08183). As to the kind of experiment: TP_TRANSPORTER: inhibition of Digoxin transepithelial transport (basal to apical) (Digoxin: 0.1 uM) in MDR1-expressing LLC-PK1 cells. The assay is classed as functional, cell-based.
The compound `COC(=O)C1=C(C)NC(C)=C(C(=O)O[C@@H]2CCCN(Cc3ccccc3)C2)C1c1cccc([N+](=O)[O-])c1` (some centres not stated) came in with a half-maximal inhibitory concentration (IC50) of 4.96 µM.

On to `COC(=O)C1=C(C)NC(C)=C(C(=O)O[C@H]2CCN(Cc3ccccc3)C2)[C@H]1c1cccc([N+](=O)[O-])c1` [BARNIDIPINE], for which it took 12.6 µM to reach half-maximal inhibition (IC50). Consider `COC(=O)C1=C(C#N)NC(C)=C(C(=O)OC(C)C)C1c1cccc([N+](=O)[O-])c1` (configuration not stated) [NILVADIPINE], for which the midpoint of inhibition, the IC50, lay at 18 µM. Under `CCOC(=O)C1=C(C)NC(C)=C(C(=O)OC)C1c1cccc([N+](=O)[O-])c1` (configuration not stated) [NITRENDIPINE] stands 68.2 µM; under `CC1=C(C(=O)OCCN(Cc2ccccc2)c2ccccc2)C(c2cccc([N+](=O)[O-])c2)C(P2(=O)OCC(C)(C)CO2)=C(C)N1` (configuration not stated) [EFONIDIPINE], 13 µM; under `COC(=O)C1=C(C)NC(C)=C(C(=O)OCC(C)C)C1c1ccccc1[N+](=O)[O-]` (configuration not stated) [NISOLDIPINE], 44.1 µM.

`COC(=O)C1=C(C)NC(C)=C(C(=O)OC)C1c1ccccc1[N+](=O)[O-]` [NIFEDIPINE] gave an IC50 of 472 µM.

Usually IC50 stands for the midpoint of a concentration-inhibition curve. Read a high IC50 as a need for much substance.
